We go through one compound from patent US10472341B2, “Bicyclic tetrahydrothiazepine derivatives useful for the treatment of neoplastic and/or infectious diseases” (APEIRON BIOLOGICS AG, priority 2015, dated 2019).

Structures are written as SMILES. pEC50: −log10 of the molar value. Structures can show the parent of a compound that is named as a salt.

The subject of the assay is human CD19+ B-cells. Put plainly: Cytokine production in IgM-stimulated isolated human CD19+ B-cells. The assay is classed as cell-based. As to conditions: for pEC50: Homo sapiens, B-cell. The protocol:
Buffy coats were obtained from a local hospital, diluted 3 fold with PBS and layered onto an isotonic Ficoll separating solution d=1.077 g/mL in 50 mL centrifuge tubes. The tubes were centrifuged at 914 g for 25 min at room temperature with the brakes off. The PBMC layer was removed and washed twice with ice-cold PBS. Erythrocytes were lysed by addition of ddH2O and cells were resuspended in X-Vivo15 (Lonza). CD19+ B cells were isolated from PBMCs by negative selection with the aid MACs kits (Miltenyi), according to manufacturer's instructions. Purified fractions were >95% CD19-positive as judged by antibody staining and assessment by cytometry. B-cells were stimulated by adding varying concentrations of human IgM (1.25-20 μg/mL goat F (ab′) 2 anti human IgM-LE/AF, Biozol) in the presence of example 1. Cells were incubated for 18 h at 37° C., 5% CO2. Assay plates were centrifuged at 400 g for 5 min and supernatants harvested. Cytokine concentration in tissue culture supernatants were determined with MSD or HTRF kits (MSD and Cisbio), according to manufacturer's instructions.

With `N[C@H]1CS(=O)(=O)c2cc(F)c(C(=O)NC3CC3(F)F)cc2N(Cc2ccc(Cl)cc2)C1=O` (stereo partly drawn) [Example 1, (3R)-3-amino-5-[(4-chlorophenyl)methyl]-N-(2,2-difluorocyclopropyl)-8-fluoro-1,1,4-trioxo-2,3,4,5-tetrahydro-1λ^6,5-benzothiazepine-7-carboxamide hydrochloride], the pEC50 reads like this: (IL-6, IgM 1.25 μg/mL) 5.61; (IL-6, IgM 5 μg/mL) 5.33; (IL-6, IgM 20 μg/mL) 5.49; (TNF-α, IgM 1.25 μg/mL) 5.48; (TNF-α, IgM 5 μg/mL) 5.35; (TNF-α, IgM 20 μg/mL) 5.53. Further, the “Fold Diff Mean” value is, setting by setting: (IL-6, IgM 1.25 μg/mL) 1.61; (IL-6, IgM 5 μg/mL) 1.92; (IL-6, IgM 20 μg/mL) 1.92; (TNF-α, IgM 1.25 μg/mL) 1.64; (TNF-α, IgM 5 μg/mL) 2.08; (TNF-α, IgM 20 μg/mL) 1.87.

What is called pEC50 is the EC50 on a negative log10 scale, so that one unit is a factor of ten. Read a low pEC50 as a large EC50.
